Experiments:
[1] = system: Rattus norvegicus; experiment: Antiinflammatory activity in streptococcal cell wall reactivation Lewis rat model assessed as reduction of joint swelling at 0.3 mg/kg administered once daily for 8 days by oral gavage starting 1 day prior to streptococcal cell wall challenge measured during 6 days post challenge relative to control; assay type: functional; parameters: scale not given: the % may be the effect or the level left
[2] = biological target: T1, Androgen receptor (Homo sapiens, UniProt P10275); experiment: biochemical
T1 sequence (P10275 whole entry): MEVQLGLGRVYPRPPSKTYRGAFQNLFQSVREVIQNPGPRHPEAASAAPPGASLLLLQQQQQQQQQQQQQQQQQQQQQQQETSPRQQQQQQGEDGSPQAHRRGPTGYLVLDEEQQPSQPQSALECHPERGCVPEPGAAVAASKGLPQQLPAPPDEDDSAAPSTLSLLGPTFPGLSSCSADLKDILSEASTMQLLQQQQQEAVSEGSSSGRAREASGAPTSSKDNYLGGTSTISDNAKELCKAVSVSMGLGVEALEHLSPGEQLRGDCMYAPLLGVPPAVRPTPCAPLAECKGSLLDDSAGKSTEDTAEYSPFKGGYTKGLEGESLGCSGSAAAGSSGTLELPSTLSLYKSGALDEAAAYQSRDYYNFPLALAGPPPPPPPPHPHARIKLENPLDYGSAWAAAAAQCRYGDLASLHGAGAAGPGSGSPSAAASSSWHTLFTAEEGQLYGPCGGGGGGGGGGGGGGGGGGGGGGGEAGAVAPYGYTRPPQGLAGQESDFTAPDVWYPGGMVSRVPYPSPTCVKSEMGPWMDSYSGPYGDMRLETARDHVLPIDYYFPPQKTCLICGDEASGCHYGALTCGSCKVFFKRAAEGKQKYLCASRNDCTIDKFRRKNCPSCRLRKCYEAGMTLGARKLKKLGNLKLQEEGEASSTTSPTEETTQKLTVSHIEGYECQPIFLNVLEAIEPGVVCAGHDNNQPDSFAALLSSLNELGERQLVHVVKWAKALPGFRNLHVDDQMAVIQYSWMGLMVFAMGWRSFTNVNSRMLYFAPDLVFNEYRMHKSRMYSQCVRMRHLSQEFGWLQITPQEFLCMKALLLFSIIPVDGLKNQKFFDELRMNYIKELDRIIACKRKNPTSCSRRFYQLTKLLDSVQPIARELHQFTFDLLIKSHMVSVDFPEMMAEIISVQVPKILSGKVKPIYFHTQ
Description: Displacement of [3H]methyltrienolone from androgen receptor in human LNCaP cells after 1440 mins by scintillation counting method

[3] = biological target: T2, Glucocorticoid receptor (Homo sapiens) (UniProt P04150)
T2 sequence (whole entry): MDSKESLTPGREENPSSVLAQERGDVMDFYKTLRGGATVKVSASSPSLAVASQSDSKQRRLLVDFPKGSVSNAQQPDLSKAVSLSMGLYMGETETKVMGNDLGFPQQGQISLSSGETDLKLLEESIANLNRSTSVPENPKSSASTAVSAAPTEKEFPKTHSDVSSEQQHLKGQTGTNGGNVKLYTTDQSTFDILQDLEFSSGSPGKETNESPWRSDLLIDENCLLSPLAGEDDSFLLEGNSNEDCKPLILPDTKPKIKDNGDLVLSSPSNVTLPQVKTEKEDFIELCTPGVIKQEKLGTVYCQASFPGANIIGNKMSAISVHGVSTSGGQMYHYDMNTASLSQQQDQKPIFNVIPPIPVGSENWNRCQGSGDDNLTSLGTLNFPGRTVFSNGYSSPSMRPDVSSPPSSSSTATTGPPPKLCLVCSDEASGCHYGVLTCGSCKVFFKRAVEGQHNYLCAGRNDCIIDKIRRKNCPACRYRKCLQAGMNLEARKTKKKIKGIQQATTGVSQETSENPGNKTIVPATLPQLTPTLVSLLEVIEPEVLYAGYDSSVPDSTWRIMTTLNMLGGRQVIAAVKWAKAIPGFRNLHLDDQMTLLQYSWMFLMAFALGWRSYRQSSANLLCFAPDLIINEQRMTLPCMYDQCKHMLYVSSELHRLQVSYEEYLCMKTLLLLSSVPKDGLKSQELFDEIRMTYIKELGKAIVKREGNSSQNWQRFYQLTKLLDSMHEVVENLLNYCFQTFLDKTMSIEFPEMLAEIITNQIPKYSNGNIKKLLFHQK
Description: Transrepression of GR in cryopreserved human fetal osteoblasts assessed as inhibition of OPG mRNA expression after 4 hrs by RT-qPCR analysis

[4] = biological target: T3, Glucocorticoid receptor (Homo sapiens, UniProt P04150)
T3 sequence (P04150 whole entry): T2 sequence (whole entry)
Description: Transrepression of GR in human whole blood assessed as inhibition of LPS-induced TNF-alpha release preincubated for 45 mins followed by LPS addition after 18 hrs by AlphaLISA method

[5] = biological target: T4, Progesterone receptor (Homo sapiens, UniProt P06401); experiment: Displacement of [3H]progesterone from progesterone receptor in human T47D cells after 1200 mins by scintillation counting method; assay type: cell-based
T4 sequence (P06401 whole entry): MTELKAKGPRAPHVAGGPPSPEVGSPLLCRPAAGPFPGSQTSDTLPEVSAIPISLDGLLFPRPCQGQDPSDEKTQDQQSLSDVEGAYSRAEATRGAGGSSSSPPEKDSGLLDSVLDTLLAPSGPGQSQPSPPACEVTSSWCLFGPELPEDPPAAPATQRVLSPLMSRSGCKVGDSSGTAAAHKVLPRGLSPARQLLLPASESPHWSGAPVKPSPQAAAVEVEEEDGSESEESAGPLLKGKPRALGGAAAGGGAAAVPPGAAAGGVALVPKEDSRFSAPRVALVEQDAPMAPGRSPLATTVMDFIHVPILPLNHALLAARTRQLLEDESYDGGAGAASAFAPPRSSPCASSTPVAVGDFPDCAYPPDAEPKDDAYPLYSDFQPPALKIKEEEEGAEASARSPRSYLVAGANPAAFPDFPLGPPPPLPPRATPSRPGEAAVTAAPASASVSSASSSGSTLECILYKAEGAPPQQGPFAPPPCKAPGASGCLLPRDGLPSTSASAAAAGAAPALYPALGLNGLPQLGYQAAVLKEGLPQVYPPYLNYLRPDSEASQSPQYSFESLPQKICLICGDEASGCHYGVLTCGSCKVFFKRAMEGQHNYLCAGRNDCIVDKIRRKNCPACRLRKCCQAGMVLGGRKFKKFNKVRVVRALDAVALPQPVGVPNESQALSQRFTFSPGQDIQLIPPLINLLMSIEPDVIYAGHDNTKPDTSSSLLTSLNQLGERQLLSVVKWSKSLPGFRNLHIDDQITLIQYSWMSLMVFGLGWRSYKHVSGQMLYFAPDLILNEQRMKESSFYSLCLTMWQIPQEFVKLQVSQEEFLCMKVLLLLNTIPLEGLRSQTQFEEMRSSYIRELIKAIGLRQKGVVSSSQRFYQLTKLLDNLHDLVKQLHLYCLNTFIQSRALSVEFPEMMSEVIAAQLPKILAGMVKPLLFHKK

[6] = biological target: T3, Glucocorticoid receptor; details: blood
Description: Therapeutic index, ratio of fIC20 for transrepression of GR in cryopreserved human fetal osteoblasts assessed as inhibition of OPG mRNA expression to fIC30 for transrepression of GR in human whole blood assessed as inhibition of LPS-induced TNF-alpha release

IC50 [2]: > 100 µM | fIC20 [3]: 0.74 nM | IC50 [4]: 0.68 µM | IC50 [5]: 5.3 µM | TI [6]: 0.55
SMILES: CC(C)[C@H](NC(=O)C(C)(F)F)[C@H](Oc1ccc2c(cnn2-c2ccc(=O)n(C)c2)c1)c1ccccc1 [MIZACORAT]
Activity [1]: 66%

— ChEMBL document CHEMBL4190372, “Discovery of a Novel Oral Glucocorticoid Receptor Modulator (AZD9567) with Improved Side Effect Profile” (J Med Chem, 2018)
